# US20060205688A1, “Method of modulating epithelial cell activity by modulating the functional levels of sphingosine kinase” (priority 2002, published 2006)
# “Also recorded” adds a separate entry of the source. Like-named read-outs stand apart in the source and are kept apart here.
# Key:
# Type in all cases: cell-based, human
# HUVEC = experiment: Cell survival in serum-free medium (MTS); set-up: effect of inhibitor on cell survival of control cells: dose or concentration left out as unconfirmed
# Method: Endothelial cells were plated into gelatin coated 96 well microtitre trays at 3×10^3 cells per well in serum-free medium. MTS (Promega, WI, USA) was used to measure cell viability. Optical density at 490 nm was measured on Day 0, Day 1, Day 2, and Day 3.
# Cell survival was measured in serum-free medium supplemented with ECGs and in non-tissue culture non-adhesive trays coated with 1% bovine serum albumin under serum free culture conditions.
# E-Selectin = experiment: E Selectin cell surface expression (FACS)
# Method: (§1) Flow cytometric analysis of cell surface expression of E-Selectin and VCAM-1 was performed as previously described (11) using 10 μg/ml mouse monoclonal primary antibodies to E-Selectin (49-1B11) or VCAM-1 (51-10C9) generated in our laboratory (Gamble J R, Khew-Goodall Y, Vadas M A. (1993) supra). Secondary antibodies used were anti-mouse fluorescein-isothiocyanate, or for GFP-expressing cells, goat anti-mouse IgG R-phycoerythrin conjugate (Southern Biotech Birmingham, Ala., USA). The median fluorescence intensity was determined using a Coulter Epics Profile XL flow cytometer.
# VCAM-1 = VCAM-1 cell surface expression (FACS)
# Method: as §1
# PECAM-1 [1] = experiment: PECAM-1 expression (flow cytometry, Western blot); conditions: normal HUVEC
# Method: SDS-polyacrylamide gel electrophoresis was performed as described (Pitson S M, Moretti P A, Zebol J R, Xia P, Gamble J R, Vadas M A et al. (2000) J Biol Chem; 275(43):33945-33950) on cell lysates using 12% acrylamide gels. […] The membrane was incubated with horseradish peroxidase-conjugated anti-mouse IgG or anti-rabbit IgG (Pierce) and immunocomplexes were detected using enhanced chemiluminescence (Amersham Pharmacia Biotech).
# Flow cytometric analysis of cell surface expression of PECAM-1 and VE-Cadherin was performed as previously described (Xia P, Gamble J R, Rye K A, Wang L, Hii C S, Cockerill P et al. (1998) supra) using 10 µg/ml mouse monoclonal primary antibodies to PECAM-1 (51-6F6) or VE-Cadherin (55-7H1) generated in our laboratory (Gamble J R, Khew-Goodall Y, Vadas M A. (1993) J Immunol; 150(10):4494-4503). […] The median fluorescence intensity was determined using a Coulter Epics Profile XL flow cytometer. FAC S analysis of the cell surface expression of CD34 was done by incubating 1×10^6 cells with […] of anti-CD34, R-phycoerythrin (R-PE)-conjugated mouse anti-human mAb (BD Pharmingen, San Diego, Calif.) for 30 minutes at room temperature, and then determining the median fluorescence intensity.
# PECAM-1 [2] = experiment: PECAM-1 phosphorylation (Western blot); conditions: data not shown
# Method: SDS-polyacrylamide gel electrophoresis was performed as described (Pitson S M, Moretti P A, Zebol J R, Xia P, Gamble J R, Vadas M A et al. (2000) J Biol Chem; 275(43):33945-33950) on cell lysates using 12% acrylamide gels. Proteins were transferred to PVDF membranes, blocked in 5% low fat milk in PBS with 0.1% Tween20 for one hour, and incubated overnight at 4 C with M2 mouse anti-FLAG antibody (Sigma, St Louis, Mo.), rabbit polyclonal anti-phospho-Akt (Cell Signaling Technology), rabbit polyclonal anti-Akt (Cell Signaling Technology), anti-phosphotyrosine (Cell Signaling Technology), or for one hour at room temperature with mouse anti-cyclin D1 or cyclin E (Santa Cruz Biotechnology) or mouse monoclonal antibody directed to PECAM-1 (51-6F6) raised at The Hanson Institute, Adelaide, Australia. The membrane was incubated with horseradish peroxidase-conjugated anti-mouse IgG or anti-rabbit IgG (Pierce) and immunocomplexes were detected using enhanced chemiluminescence (Amersham Pharmacia Biotech).
# [3] = pertussis toxin 50 ng/ml 18 hours, then TNFα 0.5 ng/ml four hours, control cells or SK cells
# [4] = pertussis toxin 50 ng/ml, cells over-expressing SK or EV
# [5] = 5 μM for four hours, SK and EV cells
compound,measurement,setting,value
N#CC(=C(/N)Sc1ccccc1N)/C(C#N)=C(\N)Sc1ccccc1N [U0126],effect of inhibitor on cell survival of control cells,HUVEC,significantly reduced cell survival
pertussis toxin,effect on SK-mediated cell survival,"HUVEC; pertussis toxin 50 ng/ml, HUVEC over-expressing SK",not inhibited
same,effect of pre-treatment on TNFα-induced E Selectin expression,E-Selectin; [3],did not alter
same,effect on basal or TNFα-induced E Selectin expression,E-Selectin; [4],did not inhibit
same,effect of pretreatment on adhesion molecule response to exogenous SIP,"VCAM-1; SK and EV cells, adhesion molecule (VCAM-1 / E Selectin) not specified",inhibited
same,effect of pre-treatment on TNFα-induced VCAM-1 expression,VCAM-1; [3],did not alter
same,effect on basal or TNFα-induced VCAM-1 expression,VCAM-1; [4],did not inhibit
CCCCCCCCCCCCC/C=C/[C@@H](O)[C@@H](N)COP(=O)(O)O [S1P],PECAM-1 expression after exogenous S1P,PECAM-1 [1],did not induce PECAM-1 expression; also recorded: had no effect
same,E Selectin expression after exogenous SIP,E-Selectin; [5],up-regulation
same,VCAM-1 expression after exogenous SIP,VCAM-1; [5],up-regulation
same,PECAM-1 phosphorylation status after exogenous S1P,PECAM-1 [2],had no effect
COc1cccc(-c2cc(=O)c3ccccc3o2)c1N [PD98059],effect of inhibitor on cell survival of control cells,"HUVEC; EV cells, Day 2",significantly reduced cell survival
